Data from patent US7432306B2, “Method for preparing novel transcription factors and use” (NRL Pharma, Inc., priority 2005, dated 2008).

Legend:
[1] = cited from earlier work
[2] = cited from earlier work; remark: listed apart in the source
ICR male mice [3] = experiment: Syngeneic Langerhans islet transplanted streptozotocin diabetic mouse; assay type: in vivo
Description: Thirty 5-week-old ICR male mice were randomly classified into six groups and all mice were fed for one week by allowing mouse standard diet CE-2 (a product of Japan CLEA Co., Ltd.). Then, the mice in the first to third groups were intravenously injected with 50 mg/kg of streptozotocin and after one week, blood was collected from the orbit and the blood sugar and the serum insulin were determined to confirm the onset of insulin-dependent diabetes. Ten days after the streptozotocin injection, pancreatic Langerhans islets were removed from the age-matched normal mice in the fourth to sixth groups and 20 pancreatic Langerhans islets were subcutaneously transplanted in the back of each of the diabetic mice. Immediately after transplantation, diet CE-2 containing 0.1% of MAC-DE was given to the first group, diet CE-2 containing 0.05% of MAC-DE was given to the second group and CE-2 was given to the third group. The diabetic mice were further fed for 60 days, and blood was collected from the orbit and the blood sugar and the serum insulin were determined every 15 days.

db/db mice = experiment: Action of MAC-DEA on db/db mouse; assay type: in vivo; details: for Blood Sugar / Serum Insulin / Serum Neutral Fat: db/db mice
Description: Eighteen 7-week-old male db/db mice were bred for one week by allowing mouse standard feed and water ad libitum. The mice were randomly classified into three groups of six mice and each group was housed in a urine collection rat cage and the intake of feed, the amount of drinking water, the amount of urine and the amount of urine sugar excreted were determined everyday. Feed CE-2 was given to the first group as a control group, and feed CE-2 mixed with 0.05% of 4-O-methylascochlorin diethylacetal (MAC-DEA) and feed CE-2 mixed with 0.1% of MAC-DEA were given to the second group and the third group, respectively. The mice were allowed feed and drinking water ad libitum and on the 7th day, blood was collected and the blood sugar, the serum neutral fat and the serum insulin were determined.

ICR male mice [4] = experiment: Fat accumulation in ICR mice fed 13 weeks; assay type: in vivo, mouse; details: liver and epididymal adipose tissue
Description: Thirty 5-week-old ICR male mice were randomly classified into three group of ten mice, and mouse standard diet CE-2 (a product of Japan CLEA Co., Ltd.) was given to the first group, and diet CE-2 containing 0.1% of 4-O-methylascochlorin diethylacetal (MAC-DE) was given to the second group and diet CE-2 containing 0.05% of MAC-DE was given to the third group and the mice were continued to be fed. […] After 13 weeks, the liver and the epididymal adipose tissue were removed from the mice and lipid was extracted by the Folch method and the triglyceride content was determined. As a result, the triglyceride content in the 0.05% MAC-DE group was reduced 27%, and the triglyceride content in the 0.1% MAC-DE group was reduced 35%. From this fact it would be understood that MAC-DE inhibits fat accumulation.

[5] = system: Ehrlich ascites carcinoma; experiment: Inhibition of Ehrlich solid tumor; assay type: in vivo, mouse; details: 7 days, 21st day
Description: Eighteen five-week-old ICR male mice were subcutaneously inoculated with 10^6 cells of Ehrlich ascites carcinoma […] and after 24 hours, and the mice were classified into three groups of six mice, and 4-O-methylascochlorin diethylacetal (MAC-DE) was suspended in 0.2% Tween-80 and 1 mg/kg and 4 mg/kg were orally administered to the first group and the second group twice a day at 9:00 and 20:00, respectively, and a MAC-DE-free Tween-80 aqueous solution was given to the third group as a control group. The administration was continued for successive 7 days and after completion of the administration, the mice were fed for two weeks. On the 21st day, a nodular tumor was removed from the mice and the body weight was determined and the effect of MAC-DE on the inhibition of tumor growth was examined.

ddY male mice = experiment: Internal fat accumulation in ddY mice fed 13 weeks; assay type: in vivo, mouse; details: livers and epididymal adipose tissues
Description: Thirty 5-week-old ddY male mice were randomly classified into three groups of ten mice and fed for 13 weeks by allowing feed and water ad libidum. Meanwhile, the mouse standard diet CE-2 (a product of Japan CLEA Co., Ltd.) was given to the first group, and diet CE-2 containing 0.1% of 4-O-methylascochlorin diethylacetal (MAC-DE) was given to the second group of mice and diet CE-2 containing 0.05% of MAC-DE was given to the third group. […] After 13 weeks, the livers and the epididymal adipose tissues were removed from the mice and lipid was extracted by the Folch method and the triglyceride content was determined. As a result, the triglyceride content in the 0.05% MAC-DE group was reduced 27%, and the neutral fat content in the 0.1% MAC-DE group was reduced 35%. From this fact it would be understood that MAC-DE inhibits internal fat accumulation.

ICR male mice [6] = experiment: Mouse serum cholesterol lowering action; assay type: in vivo; details: one week; for Total Cholesterol in Serum: ICR mice; for Rate of Change (total cholesterol in serum): vs control
Description: Thirty 5-week-old ICR male mice were bred by allowing mouse standard feed and water ad libitum. The mice were randomly classified into three groups, and one group was taken as a control group to which no drug was administered, and feed containing 0.1% of 4-O-methylasco-chlorin diethylacetal (MAC-DEA) and feed containing 0.05% of MAC-DEA were given to the other two groups, respectively. The body weight, the intake of feed and the amount of drinking water were measured every other day. One week after giving feed, blood was collected and the total cholesterol in serum and the neutral fat were determined.

C57BL ksj (db/db) = details: hereditary obese diabetic mouse C57BL ksj (db/db); cited from earlier work

COc1c(Cl)c(C)c(C=O)c(O)c1C/C=C(C)/C=C/[C@@]1(C)[C@H](C)CCC(=O)[C@@H]1C [MAC, 4-O-Methylascochlorin]
solubility in water [1]: less than 0.7 μg/ml | bioavailability ([2]; oral, animals): very poor bioavailability

CCOC(OCC)c1c(C)c(Cl)c(OC)c(C/C=C(C)/C=C/[C@@]2(C)[C@H](C)CCC(=O)[C@@H]2C)c1O [MAC-DEA, 4-O-methylascochlorin diethylacetal]
Blood Sugar (ICR male mice [3]; 0.05% in diet CE-2, Day 0): 566 mg/dL | Insulin (ICR male mice [3]; 0.05% in diet CE-2, Day 0): <2 ·U/ml | Blood Sugar (ICR male mice [3]; 0.05% in diet CE-2, Day 15): 143 mg/dL | Insulin (ICR male mice [3]; 0.05% in diet CE-2, Day 15): 5 ·U/ml | Blood Sugar (ICR male mice [3]; 0.05% in diet CE-2, Day 30): 148 mg/dL | Insulin (ICR male mice [3]; 0.05% in diet CE-2, Day 30): 5 ·U/ml | Blood Sugar (ICR male mice [3]; 0.05% in diet CE-2, Day 45): 125 mg/dL | Insulin (ICR male mice [3]; 0.05% in diet CE-2, Day 45): 6 ·U/ml | Blood Sugar (ICR male mice [3]; 0.05% in diet CE-2, Day 60): 118 mg/dL | Insulin (ICR male mice [3]; 0.05% in diet CE-2, Day 60): 6 ·U/ml | Blood Sugar (ICR male mice [3]; 0.1% in diet CE-2, Day 0): 583 mg/dL | Insulin (ICR male mice [3]; 0.1% in diet CE-2, Day 0): <2 ·U/ml | Blood Sugar (ICR male mice [3]; 0.1% in diet CE-2, Day 15): 121 mg/dL | Insulin (ICR male mice [3]; 0.1% in diet CE-2, Day 15): 5 ·U/ml | Blood Sugar (ICR male mice [3]; 0.1% in diet CE-2, Day 30): 118 mg/dL | Insulin (ICR male mice [3]; 0.1% in diet CE-2, Day 30): 6 ·U/ml | Blood Sugar (ICR male mice [3]; 0.1% in diet CE-2, Day 45): 119 mg/dL | Insulin (ICR male mice [3]; 0.1% in diet CE-2, Day 45): 6 ·U/ml | Blood Sugar (ICR male mice [3]; 0.1% in diet CE-2, Day 60): 131 mg/dL | Insulin (ICR male mice [3]; 0.1% in diet CE-2, Day 60): 6 ·U/ml | Blood Sugar (db/db mice; 0.05% in feed CE-2, 7th day): 273 mg/dL | Serum Insulin (db/db mice; 0.05% in feed CE-2, 7th day): 175 ·U/ml | Serum Neutral Fat (db/db mice; 0.05% in feed CE-2, 7th day): 259 mg/dL | Amount of Drinking Water (db/db mice; 0.05% in feed CE-2, db/db mice): 5.4 ml/mouse | Amount of Urine (db/db mice; 0.05% in feed CE-2, db/db mice): 2.5 ml/mouse | Amount of Urine Sugar Excreted (db/db mice; 0.05% in feed CE-2, db/db mice): 47 mg/dL | Blood Sugar (db/db mice; 0.1% in feed CE-2, 7th day): 239 mg/dL | Serum Insulin (db/db mice; 0.1% in feed CE-2, 7th day): 132 ·U/ml | Serum Neutral Fat (db/db mice; 0.1% in feed CE-2, 7th day): 248 mg/dL | Amount of Drinking Water (db/db mice; 0.1% in feed CE-2, db/db mice): 3.2 ml/mouse | Amount of Urine (db/db mice; 0.1% in feed CE-2, db/db mice): 1.7 ml/mouse | Amount of Urine Sugar Excreted (db/db mice; 0.1% in feed CE-2, db/db mice): 10 mg/dL | triglyceride content, reduction (ICR male mice [4]; 0.05% in diet): 27% | triglyceride content, reduction (ICR male mice [4]; 0.1% in diet): 35% | Inhibition Ratio (tumor) ([5]; 1 mg/kg oral twice a day): 81% | Weight of Tumor ([5]; 1 mg/kg oral twice a day): 0.25 g/mouse | Inhibition Ratio (tumor) ([5]; 4 mg/kg oral twice a day): 96% | Weight of Tumor ([5]; 4 mg/kg oral twice a day): 0.06 g/mouse | triglyceride content, reduction (ddY male mice; 0.05% in diet): 27% | neutral fat content, reduction (ddY male mice; 0.1% in diet): 35% | Total Cholesterol in Serum (ICR male mice [6]; 0.05% in feed): 97 mg/dL | Rate of Change (total cholesterol in serum) (ICR male mice [6]; 0.05% in feed): −17.8% | Total Cholesterol in Serum (ICR male mice [6]; 0.1% in feed): 90 mg/dL | Rate of Change (total cholesterol in serum) (ICR male mice [6]; 0.1% in feed): −23.7%

CC(C=CC1(C)C(C)CCC(=O)C1C)=CCc1c(O)c(C=O)c(C)c(Cl)c1OCC(=O)O (centres unmarked) [AS-6, 4-O-carboxymethylasco-chlorin]
carbohydrate metabolism (C57BL ksj (db/db)): improves in the carbohydrate metabolism | soluble in water at a concentration ([1]; pH of 7.2 to 7.7 in the small intestine): ≥ 6% | toxicity to the liver ([2]; oral, blood concentration quickly rises): the toxicity to the liver is easily exhibited | excretion ([2]; orally administered to an animal): quickly excreted
